# pIC50: −log10 of the molar value.
# Experiments:
# Type in all cases: cell-based
# Nav 1.7 [1] = molecular target: T1, Nav 1.7 (Homo sapiens (Human), UniProt Q15858); test: Nav 1.7 in vitro assay, IonWorks Quattro (IWQ) population patch-clamp; details: HEK 293 cells stably transfected with Nav 1.7; 26th pulse to -20 mV
# Nav 1.7 [2] = molecular target: T1, Nav 1.7; test: Nav 1.7 in vitro PX assay, PatchXpress whole cell voltage clamp; details: HEK 293 cells stably transfected with human Nav1.7; for pIC50: partially inactivated state (20 to 50% inactivation)
# Procedure, shortened: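 Partially inactivated channels (20–50% inactivation at holding potential) were probed on automated patch clamp in stably transfected HEK293 cells, stepping to −10 mV for 20 msec every 10 s (0.1 Hz).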
# Nav 1.5 = Nav 1.5 (Homo sapiens (Human), UniProt Q14524); test: Nav 1.5 in vitro assay, IonWorks Quattro (IWQ) population patch-clamp; details: HEK 293 cells stably transfected with Nav 1.5; 26th pulse to -20 mV
# Sequence of Nav 1.5 (Q14524 whole entry): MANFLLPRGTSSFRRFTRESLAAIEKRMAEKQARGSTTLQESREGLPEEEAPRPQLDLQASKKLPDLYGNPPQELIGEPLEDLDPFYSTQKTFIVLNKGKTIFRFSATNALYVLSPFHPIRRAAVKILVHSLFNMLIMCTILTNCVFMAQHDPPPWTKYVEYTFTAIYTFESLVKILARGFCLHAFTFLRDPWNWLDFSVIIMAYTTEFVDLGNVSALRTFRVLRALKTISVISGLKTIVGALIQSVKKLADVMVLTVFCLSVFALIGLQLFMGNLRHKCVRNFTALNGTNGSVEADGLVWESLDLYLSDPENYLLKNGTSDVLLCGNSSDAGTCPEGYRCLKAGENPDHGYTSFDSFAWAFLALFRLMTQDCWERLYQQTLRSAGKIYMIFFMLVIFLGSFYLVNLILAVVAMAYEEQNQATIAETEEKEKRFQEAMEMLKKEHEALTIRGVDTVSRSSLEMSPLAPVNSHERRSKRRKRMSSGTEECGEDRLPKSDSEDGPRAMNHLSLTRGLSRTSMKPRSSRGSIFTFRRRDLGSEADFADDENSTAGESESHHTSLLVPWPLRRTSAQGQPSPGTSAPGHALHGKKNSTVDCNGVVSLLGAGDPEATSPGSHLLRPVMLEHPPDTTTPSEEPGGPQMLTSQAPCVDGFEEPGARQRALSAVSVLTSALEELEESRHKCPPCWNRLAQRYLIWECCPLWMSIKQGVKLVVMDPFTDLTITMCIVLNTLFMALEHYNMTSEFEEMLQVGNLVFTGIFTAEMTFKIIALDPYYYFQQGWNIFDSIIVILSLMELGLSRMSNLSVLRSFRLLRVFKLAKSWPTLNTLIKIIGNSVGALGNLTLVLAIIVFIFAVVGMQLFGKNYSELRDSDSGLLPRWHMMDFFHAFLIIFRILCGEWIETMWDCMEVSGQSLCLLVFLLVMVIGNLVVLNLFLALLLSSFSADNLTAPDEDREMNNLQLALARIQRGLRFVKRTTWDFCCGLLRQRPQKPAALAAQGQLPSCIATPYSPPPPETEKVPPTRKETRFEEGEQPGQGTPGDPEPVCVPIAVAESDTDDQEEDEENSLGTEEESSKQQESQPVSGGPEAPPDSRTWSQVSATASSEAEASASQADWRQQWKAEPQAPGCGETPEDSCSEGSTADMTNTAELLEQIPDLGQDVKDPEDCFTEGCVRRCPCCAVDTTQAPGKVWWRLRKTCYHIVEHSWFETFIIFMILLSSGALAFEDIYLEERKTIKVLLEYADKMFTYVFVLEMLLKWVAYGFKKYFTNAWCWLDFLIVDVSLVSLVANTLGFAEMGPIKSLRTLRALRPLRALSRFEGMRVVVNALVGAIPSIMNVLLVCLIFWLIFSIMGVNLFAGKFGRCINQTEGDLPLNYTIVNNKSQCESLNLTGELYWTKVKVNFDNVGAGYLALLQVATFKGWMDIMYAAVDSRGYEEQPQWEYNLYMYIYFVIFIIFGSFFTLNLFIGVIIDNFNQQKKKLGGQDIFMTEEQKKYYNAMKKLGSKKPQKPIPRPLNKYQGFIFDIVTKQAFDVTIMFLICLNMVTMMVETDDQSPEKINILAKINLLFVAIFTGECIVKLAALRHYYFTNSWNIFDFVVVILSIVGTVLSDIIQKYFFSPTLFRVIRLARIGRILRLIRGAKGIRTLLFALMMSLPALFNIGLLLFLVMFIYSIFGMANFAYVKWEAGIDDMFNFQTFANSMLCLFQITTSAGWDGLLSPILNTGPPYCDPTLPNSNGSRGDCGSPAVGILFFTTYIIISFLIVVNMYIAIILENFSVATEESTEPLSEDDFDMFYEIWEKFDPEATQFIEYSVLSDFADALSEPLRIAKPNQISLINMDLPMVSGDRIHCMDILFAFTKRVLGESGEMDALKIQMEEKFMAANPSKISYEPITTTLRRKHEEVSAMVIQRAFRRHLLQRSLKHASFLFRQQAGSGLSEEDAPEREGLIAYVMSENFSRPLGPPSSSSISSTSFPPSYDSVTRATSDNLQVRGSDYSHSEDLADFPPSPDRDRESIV
# T1 sequence (Q15858 whole entry): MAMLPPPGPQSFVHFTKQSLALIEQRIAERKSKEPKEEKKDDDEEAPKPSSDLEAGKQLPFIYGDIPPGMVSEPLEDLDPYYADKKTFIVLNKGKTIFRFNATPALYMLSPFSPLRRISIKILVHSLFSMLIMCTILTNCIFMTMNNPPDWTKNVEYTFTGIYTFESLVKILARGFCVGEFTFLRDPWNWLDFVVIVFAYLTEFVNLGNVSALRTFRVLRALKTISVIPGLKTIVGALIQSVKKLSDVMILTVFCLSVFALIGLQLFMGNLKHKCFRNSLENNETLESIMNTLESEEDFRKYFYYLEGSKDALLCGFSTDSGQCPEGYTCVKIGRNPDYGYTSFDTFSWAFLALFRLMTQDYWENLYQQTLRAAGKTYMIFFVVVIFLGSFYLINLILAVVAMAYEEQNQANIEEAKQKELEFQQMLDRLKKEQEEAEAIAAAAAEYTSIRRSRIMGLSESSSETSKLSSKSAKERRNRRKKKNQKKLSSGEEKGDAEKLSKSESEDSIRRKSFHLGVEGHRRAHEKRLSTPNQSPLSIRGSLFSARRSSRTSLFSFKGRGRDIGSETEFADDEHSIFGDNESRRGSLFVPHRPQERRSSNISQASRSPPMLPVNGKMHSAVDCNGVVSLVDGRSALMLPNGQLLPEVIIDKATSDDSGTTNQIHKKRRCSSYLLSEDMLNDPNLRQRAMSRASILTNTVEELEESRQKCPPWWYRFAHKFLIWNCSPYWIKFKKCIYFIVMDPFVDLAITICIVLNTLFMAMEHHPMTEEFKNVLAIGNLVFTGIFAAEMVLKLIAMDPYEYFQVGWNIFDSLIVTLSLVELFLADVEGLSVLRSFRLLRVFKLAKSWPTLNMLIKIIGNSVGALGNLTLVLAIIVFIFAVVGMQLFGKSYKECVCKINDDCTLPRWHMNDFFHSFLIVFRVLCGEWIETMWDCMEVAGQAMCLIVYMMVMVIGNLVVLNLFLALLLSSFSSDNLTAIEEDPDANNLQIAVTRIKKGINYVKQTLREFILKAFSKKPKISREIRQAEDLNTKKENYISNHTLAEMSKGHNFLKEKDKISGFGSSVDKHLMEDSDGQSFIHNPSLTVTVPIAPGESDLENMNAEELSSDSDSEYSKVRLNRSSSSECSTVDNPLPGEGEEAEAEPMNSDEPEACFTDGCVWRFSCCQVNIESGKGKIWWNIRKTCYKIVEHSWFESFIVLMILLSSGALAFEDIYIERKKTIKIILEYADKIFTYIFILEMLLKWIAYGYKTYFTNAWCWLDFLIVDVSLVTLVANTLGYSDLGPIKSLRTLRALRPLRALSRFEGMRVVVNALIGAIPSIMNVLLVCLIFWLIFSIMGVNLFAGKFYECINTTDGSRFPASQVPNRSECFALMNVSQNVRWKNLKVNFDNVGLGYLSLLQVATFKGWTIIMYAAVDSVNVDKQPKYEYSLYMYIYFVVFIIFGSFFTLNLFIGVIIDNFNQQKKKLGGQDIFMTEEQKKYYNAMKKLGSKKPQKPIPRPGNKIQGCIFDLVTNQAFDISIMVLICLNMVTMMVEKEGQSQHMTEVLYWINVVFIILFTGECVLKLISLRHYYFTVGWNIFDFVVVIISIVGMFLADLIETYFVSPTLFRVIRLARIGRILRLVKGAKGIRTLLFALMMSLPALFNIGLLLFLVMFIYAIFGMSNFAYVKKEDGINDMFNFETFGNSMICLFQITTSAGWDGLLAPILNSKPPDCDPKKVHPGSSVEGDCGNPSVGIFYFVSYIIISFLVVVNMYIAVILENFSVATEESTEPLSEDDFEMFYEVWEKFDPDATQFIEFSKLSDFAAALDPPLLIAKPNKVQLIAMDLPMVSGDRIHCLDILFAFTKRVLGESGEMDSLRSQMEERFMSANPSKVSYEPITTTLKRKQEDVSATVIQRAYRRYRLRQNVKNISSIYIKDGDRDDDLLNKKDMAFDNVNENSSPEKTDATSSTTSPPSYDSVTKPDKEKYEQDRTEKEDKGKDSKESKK
Structure (SMILES),pIC50 (Nav 1.7 [1]),pIC50 (Nav 1.7 [2]),pIC50 (Nav 1.5),"inhibition at 4.9 µM (Nav 1.7 [2]; HEK293, values marked *, 4.9 μM, read-out: Nav 1.7 PX percent inhibition at 4.9 μM) [%]"
"O=S(=O)(Nc1nccs1)c1ccc2c(c1)OCCN2c1ccc(Cl)cc1CC(O)CO (stereo not drawn) [Example 210, 4-(4-Chloro-2-(2,3-Dihydroxypropyl)Phenyl)-N-(Thiazol-2-Yl)-3,4-Dihydro-2H-Benzo[B][1,4]Oxazine-7-Sulfonamide]",7.90,6.65,5.21,–
"COc1ccc(C#N)c(N2CCOc3cc(S(=O)(=O)Nc4nccs4)ccc32)c1 [Example 189, 4-(2-Cyano-5-Methoxyphenyl)-N-(Thiazol-2-Yl)-3,4-Dihydro-2H-Benzo[B][1,4]Oxazine-7-Sulfonamide]",6.41,5.51,5.12,–
"C[C@@H]1COc2cc(S(=O)(=O)Nc3nccs3)ccc2N1c1ccc(C(F)(F)F)cc1C#N (single isomer, unassigned) [Example 97]",6.68,6.11,6.07,–
"O=S(=O)(Nc1ncns1)c1ccc2c(c1)OCCN2c1ccc(C(F)(F)F)cc1-c1cncnc1 [Example 23, 4-(2-(Pyrimidin-5-Yl)-4-(Trifluoromethyl)Phenyl)-N-(1,2,4-Thiadiazol-5-Yl)-3,4-Dihydro-2H-Benzo[B][1,4]Oxazine-7-Sulfonamide]",7.53,6.18,5.27,–
"CC1COc2cc(S(=O)(=O)Nc3nccs3)ccc2N1c1ccc(C(F)(F)F)cc1C#N (racemic) [Example 96, 4-(2-Cyano-4-(Trifluoromethyl)Phenyl)-3-Methyl-N-(Thiazol-2-Yl)-3,4-Dihydro-2H-Benzo[B][1,4]Oxazine-7-Sulfonamide]",6.08,5.72,5.85,–
"N#Cc1cc(C(F)(F)F)ccc1N1CCOc2cc(S(=O)(=O)Nc3nccs3)cc(F)c21 [Example 218, 4-(2-Cyano-4-(Trifluoromethyl)Phenyl)-5-Fluoro-N-(Thiazol-2-Yl)-3,4-Dihydro-2H-Benzo[B][1,4]Oxazine-7-Sulfonamide]",6.71,5.70,6.41,–
"COc1ccc(C)nc1N1CCOc2cc(S(=O)(=O)Nc3nccs3)ccc21 [Example 109, 4-(3-methoxy-6-methyl-2-pyridinyl)-N-1,3-thiazol-2-yl-3,4-dihydro-2H-1,4-benzoxazine-7-sulfonamide]",6.60,5.70,< 5.00,–
"Nc1cc(-c2cc(C(F)(F)F)ccc2N2CCOc3cc(S(=O)(=O)Nc4ncns4)ccc32)ccn1 [Example 29, 4-(2-(2-Aminopyridin-4-Yl)-4-(Trifluoromethyl)Phenyl)-N-(1,2,4-Thiadiazol-5-Yl)-3,4-Dihydro-2H-Benzo[B][1,4]Oxazine-7-Sulfonamide]",8.02,7.10,6.20,–
"COc1cnccc1N1CCOc2cc(S(=O)(=O)Nc3nccs3)ccc21 [Example 158, 4-(3-methoxypyridin-4-yl)-N-(thiazol-2-yl)-3,4-dihydro-2H-benzo[b][1,4]oxazine-7-sulfonamide]",5.83,5.35,< 5.00,–
"O=S(=O)(Nc1nccs1)c1ccc2c(c1)OCCN2c1ccc(C(F)(F)F)cc1C(O)CO (stereo not drawn) [Example 204, 4-(2-(1,2-dihydroxyethyl)-4-(trifluoromethyl)phenyl)-N-(thiazol-2-yl)-3,4-dihydro-2H-benzo[b][1,4]oxazine-7-sulfonamide]",7.32,6.46,6.20,–
"COc1ccc(N2CCOc3cc(S(=O)(=O)Nc4ncns4)ccc32)cc1 [Example 37, 4-(4-Methoxyphenyl)-N-(1,2,4-Thiadiazol-5-Yl)-3,4-Dihydro-2H-Benzo[B][1,4]Oxazine-7-Sulfonamide]",6.68,5.66,< 5.00,–
"O=S(=O)(Nc1nccs1)c1ccc2c(c1)OCCN2c1ccc(C(F)(F)F)cc1Br [Example 43, 4-(2-Bromo-4-(Trifluoromethyl)Phenyl)-N-(Thiazol-2-Yl)-3,4-Dihydro-2H-Benzo[B][1,4]Oxazine-7-Sulfonamide]",6.94,6.01,5.73,–
"O=S(=O)(Nc1nccs1)c1ccc2c(c1)OCCN2c1cccc2c1OC(F)(F)O2 [Example 129, 4-(2,2-Difluorobenzo[d][1,3]dioxol-4-yl)-N-(thiazol-2-yl)-3,4-dihydro-2H-benzo[b][1,4]oxazine-7-sulfonamide]",6.58,5.54,< 5.00,–
"O=S(=O)(Nc1ncns1)c1ccc2c(c1)OCCN2c1ccc(C(F)(F)F)cc1Cl [Example 2, 4-(2-Chloro-4-(Trifluoromethyl)Phenyl)-N-(1,2,4-Thiadiazol-5-Yl)-3,4-Dihydro-2H-Benzo[B][1,4]Oxazine-7-Sulfonamide]",8.11,7.41,< 5.00,–
"COc1ccc(C(F)(F)F)cc1N1CCOc2cc(S(=O)(=O)Nc3nccs3)ccc21 [Example 114, 4-(2-Methoxy-5-(trifluoromethyl)phenyl)-N-(thiazol-2-yl)-3,4-dihydro-2H-benzo[b][1,4]oxazine-7-sulfonamide]",7.39,6.56,5.30,–
"O=S(=O)(Nc1ncns1)c1ccc2c(c1)OCCN2c1ccc(C(F)(F)F)cc1-c1cn[nH]c1 [Example 4, 4-(2-(1H-Pyrazol-4-Yl)-4-(Trifluoromethyl)Phenyl)-N-(1,2,4-Thiadiazol-5-Yl)-3,4-Dihydro-2H-Benzo[B][1,4]Oxazine-7-Sulfonamide]",8.03,7.24,6.03,–
"N#Cc1cc(C(F)(F)F)ccc1N1CCOc2cc(S(=O)(=O)Nc3ncco3)ccc21 [Example 90, 4-(2-Cyano-4-(Trifluoromethyl)Phenyl)-N-(Oxazol-2-Yl)-3,4-Dihydro-2H-Benzo[B][1,4]Oxazine-7-Sulfonamide]",6.03,5.59,< 5.00,–
"N#Cc1cc(C(F)(F)F)ccc1N1CCOc2cc(S(=O)(=O)Nc3ccno3)ccc21 [Example 91, 4-(2-Cyano-4-(Trifluoromethyl)Phenyl)-N-(Isoxazol-5-Yl)-3,4-Dihydro-2H-Benzo[B][1,4]Oxazine-7-Sulfonamide]",5.44,5.04,< 5.00,–
"O=S(=O)(Nc1nccs1)c1ccc2c(c1)OCCN2c1ccc2ncsc2c1 [Example 71, 4-(Benzo[D]Thiazol-6-Yl)-N-(Thiazol-2-Yl)-3,4-Dihydro-2H-Benzo[B][1,4]Oxazine-7-Sulfonamide 2,2,2-Trifluoroacetate]",6.22,5.27,< 5.00,–
"O=S(=O)(Nc1nccs1)c1ccc2c(c1)OCCN2c1ccccc1Cl [Example 46, 4-(2-Chlorophenyl)-N-(Thiazol-2-Yl)-3,4-Dihydro-2H-Benzo[B][1,4]Oxazine-7-Sulfonamide]",6.78,5.97,< 5.00,–
"C[C@@H]1CN(c2ccc(C(F)(F)F)cc2C#N)c2ccc(S(=O)(=O)Nc3nccs3)cc2O1 (single isomer, unassigned) [Example 95]",7.15,6.53,5.18,–
"O=S(=O)(Nc1ncccn1)c1ccc2c(c1)OCCN2c1ccc(C(F)(F)F)cc1C1=CCNCC1 [Example 86, N-(Pyrimidin-2-Yl)-4-(2-(1,2,3,6-Tetrahydropyridin-4-Yl)-4-(Trifluoromethyl)Phenyl)-3,4-Dihydro-2H-Benzo[B][1,4]Oxazine-7-Sulfonamide]",6.49,6.07,5.65,–
"Cc1ccc(Cl)c(N2CCOc3cc(S(=O)(=O)Nc4nccs4)ccc32)c1 [Example 67, 4-(2-Chloro-5-Methylphenyl)-N-(Thiazol-2-Yl)-3,4-Dihydro-2H-Benzo[B][1,4]Oxazine-7-Sulfonamide 2,2,2-Trifluoroacetate]",6.42,6.35,5.27,–
"O=S(=O)(Nc1nccs1)c1ccc2c(c1)OCCN2c1ccc2nccnc2c1 [Example 69, 4-(Quinoxalin-6-Yl)-N-(Thiazol-2-Yl)-3,4-Dihydro-2H-Benzo[B][1,4]Oxazine-7-Sulfonamide 2,2,2-Trifluoroacetate]",5.42,–,5.35,33.9
"N#Cc1cc(N2CCOc3cc(S(=O)(=O)Nc4nccs4)ccc32)ccc1F [Example 175, 4-(3-Cyano-4-Fluorophenyl)-N-(Thiazol-2-Yl)-3,4-Dihydro-2H-Benzo[B][1,4]Oxazine-7-Sulfonamide 2,2,2-Trifluoroacetate]",6.69,5.86,5.29,–
"O=S(=O)(Nc1nccs1)c1ccc2c(c1)OCCN2c1cccc(OC(F)F)c1 [Example 172, 4-(3-(Difluoromethoxy)Phenyl)-N-(Thiazol-2-Yl)-3,4-Dihydro-2H-Benzo[B][1,4]Oxazine-7-Sulfonamide 2,2,2-Trifluoroacetate]",6.61,6.03,< 5.00,–
"COc1cc(F)ccc1N1CCOc2cc(S(=O)(=O)Nc3nccs3)ccc21 [Example 150, 4-(4-Fluoro-2-methoxyphenyl)-N-(thiazol-2-yl)-3,4-dihydro-2H-benzo[b][1,4]oxazine-7-sulfonamide]",7.77,6.72,5.25,–
"N#Cc1cc(C(F)(F)F)ccc1N1CCOc2c1ccc(S(=O)(=O)Nc1nccs1)c2F [Example 216, 4-(2-Cyano-4-(Trifluoromethyl)Phenyl)-8-Fluoro-N-(Thiazol-2-Yl)-3,4-Dihydro-2H-Benzo[B][1,4]Oxazine-7-Sulfonamide]",7.47,6.29,5.24,–
"COc1cc(C)c(N2CCOc3cc(S(=O)(=O)Nc4nccs4)ccc32)cn1 [Example 137, 4-(6-Methoxy-4-methylpyridin-3-yl)-N-(thiazol-2-yl)-3,4-dihydro-2H-benzo[b][1,4]oxazine-7-sulfonamide]",6.04,4.66,< 5.00,–
